Assay results taken from patent US12319655B2, “RAF kinase inhibitors and methods of use thereof” (Deciphera Pharmaceuticals, LLC, priority 2021, dated 2025).

Columns and labels:
[1] = target: B-Raf (V600E) (SEQ. ID NO: 4) kinase (Homo sapiens (Human), UniProt P15056, V600E); assay: Biochemical Assay for B-Raf (V600E) (2); conditions: Table J, BRAF V600E, biochemical assay (2); read-out: BRAF VE (2)
Protocol: Biochemical Assay for B-Raf (V600E) (2)
Activity of B-Raf (V600E) (SEQ. ID NO: 4) kinase was determined spectroscopically using a coupled pyruvate kinase/lactate dehydrogenase assay that continuously monitors the ATP hydrolysis-dependent oxidation of NADH (e.g., Schindler et al., Science, 2000, 289, 1938-1942). Assays were conducted in 384-well plates (25 μL final volume) using 0.5 nM B-Raf (deCode), 1.5 units pyruvate kinase, 2.1 units lactate dehydrogenase, 1 mM phosphoenol pyruvate, 0.7 mM NADH, 100 nM MEK (SignalChem), and 1 mM ATP in assay buffer (100 mM Tris, pH 7.5, 15 mM MgCl2, 0.5 mM DTT, 0.1% octyl-glucoside, 0.002% (w/v) BSA, and 0.002% Triton X-100). Inhibition of B-Raf (V600E) was measured by adding serial diluted test compound (final assay concentration of 1% DMSO). A decrease in absorption at 340 nm was monitored hourly for 4 h at 30° C. on a multi-mode microplate reader (BioTek). The reaction rate was calculated using the 3 to 4 h time frame. The reaction rate at each concentration of compound was converted to percent inhibition using controls (i.e., reaction with no test compound and reaction with a known inhibitor) and IC50 values were calculated by fitting a four-parameter sigmoidal curve to the data using Prism (GraphPad software).

[2] = target: A-Raf kinase (SEQ. ID No: 1) (Homo sapiens (Human), UniProt P10398, Y301D/Y302D); assay: Biochemical Assay for A-Raf (2); conditions: Table J, biochemical assay (2); read-out: ARAF (2)
Chain of A-Raf kinase (SEQ. ID No: 1) (P10398 other isoform, or with tags, fused parts or gaps Y301D (already in the parent)/Y302D (already in the parent)): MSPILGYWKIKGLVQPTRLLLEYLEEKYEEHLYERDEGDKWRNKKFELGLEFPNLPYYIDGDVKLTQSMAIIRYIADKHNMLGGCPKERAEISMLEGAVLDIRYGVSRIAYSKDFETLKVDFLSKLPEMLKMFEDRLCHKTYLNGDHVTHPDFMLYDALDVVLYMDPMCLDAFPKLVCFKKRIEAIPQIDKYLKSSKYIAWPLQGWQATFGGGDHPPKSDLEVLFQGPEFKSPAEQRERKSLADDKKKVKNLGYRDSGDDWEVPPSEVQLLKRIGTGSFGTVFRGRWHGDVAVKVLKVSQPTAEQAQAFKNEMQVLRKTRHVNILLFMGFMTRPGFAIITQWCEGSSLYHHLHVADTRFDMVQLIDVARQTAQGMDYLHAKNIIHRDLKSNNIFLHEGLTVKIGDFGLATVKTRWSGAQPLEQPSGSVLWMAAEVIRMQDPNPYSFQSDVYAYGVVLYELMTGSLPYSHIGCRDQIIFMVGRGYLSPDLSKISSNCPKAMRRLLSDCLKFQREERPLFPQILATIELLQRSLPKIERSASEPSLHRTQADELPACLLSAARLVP
Protocol: Biochemical Assay for A-Raf (2)
Activity of A-Raf kinase (SEQ. ID No: 1) was determined spectroscopically using a coupled pyruvate kinase/lactate dehydrogenase assay that continuously monitors the ATP hydrolysis-dependent oxidation of NADH (e.g., Schindler et al., Science, 2000, 289, 1938-1942). Assays were conducted in 384-well plates (25 μL final volume) using 20 nM A-Raf (Eurofins), 1.5 units pyruvate kinase, 2.1 units lactate dehydrogenase, 1 mM phosphoenol pyruvate, 0.7 mM NADH, 100 nM MEK (SignalChem), and 1 mM ATP in assay buffer (100 mM Tris, pH 7.5, 15 mM MgCl2, 0.5 mM DTT, 0.1% octyl-glucoside, 0.002% (w/v) BSA, and 0.002% Triton X-100). Inhibition of A-Raf was measured by adding serial diluted test compound (final assay concentration of 1% DMSO). A decrease in absorption at 340 nm was monitored hourly for 4 h at 30° C. on a multi-mode microplate reader (BioTek). The reaction rate was calculated using the 3 to 4 h time frame. The reaction rate at each concentration of compound was converted to percent inhibition using controls (i.e., reaction with no test compound and reaction with a known inhibitor) and IC50 values were calculated by fitting a four-parameter sigmoidal curve to the data using Prism (GraphPad software).

[3] = tested on: WM3928 cells; assay: WM3928 Cell Proliferation Assay (2); type: cell-based
Protocol: WM3928 Cell Proliferation Assay (2)
WM3928 cells (#WM3928-01-0001) are obtained from Rockland Immunochemicals Inc (Gilbertsville, PA). Briefly, cells were grown in MCDB 153 medium (Sigma, #M7403, St. Louis, MO) supplemented with 20% Leibovitz's L-15 (ThermoFisher #11415-064, Waltham, MA), 2% heat inactivated fetal bovine serum (ThermoFisher, #A3840001, Waltham, MA), 5 μg/mL Insulin (Bovine Pancreas) (Sigma, #10516, St. Louis, MO), 1.68 mM Calcium Chloride (Sigma, #C-34006, St. Louis, MO) and 1% Penicillin/Streptomycin/L-Glutamine (ThermoFisher #10378016, Waltham, MA) at 37° C., 5% CO2, and 95% humidity. Cells are expanded until reaching 70-95% confluency at which point they are sub-cultured or harvested for assay use. Using the Beckman Coulter Echo 650, a serial dilution of test compound is dispensed into a 384-well black clear bottom plate in triplicate. Seven hundred fifty cells are added per well in 50 μL complete growth medium in the 384-well plate. Plates are incubated for 67-72 hours at 37° C., 5% CO2, and 95% humidity. At the end of the incubation, 10 μL of a 440 μM solution of resazurin (Sigma, #199303, St. Louis, MO) in PBS is added to each well of the plate and plates are incubated for an additional 3-6 hours at 37° C., 5% CO2, and 95% humidity. Plates are read on a Synergy2 or equivalent reader (Biotek, Winooski VT) using an excitation of 540 nm and an emission of 600 nm. Data is analyzed using Prism software (GraphPad, San Diego, CA) to calculate IC50 values.

[4] = tested on: A375 cells; assay: A375 Cell Proliferation Assay (2); type: cell-based; conditions: Homo sapiens, A-375
Protocol: A375 Cell Proliferation Assay (2)
A375 cells (catalog (#CRL-1619) are obtained from the American Type Culture Collect (ATTC, Manassas, VA). Briefly, cells were grown in DMEM High Glucose supplemented with 10% characterized fetal bovine serum (Invitrogen, Carlsbad, CA) and 1% Penicillin/Streptomycin/L-Glutamine at 37° C., 5% CO2, and 95% humidity. Cells are expanded until reaching 70-95% confluency at which point they are sub-cultured or harvested for assay use. Using the Beckman Coulter Echo 650, a serial dilution of test compound is dispensed into a 384-well black clear bottom plate in triplicate. Six hundred twenty-five cells are added per well in 50 μL complete growth medium in the 384-well plate. Plates are incubated for 67-72 h at 37° C., 5% CO2, and 95% humidity. At the end of the incubation, 10 μL of a 440 μM solution of resazurin (Sigma, St. Louis, MO) in PBS is added to each well of the plate and plates are incubated for an additional 3-6 h at 37° C., 5% CO2, and 95% humidity. Plates are read on a Synergy2 or equivalent reader (Biotek, Winooski VT) using an excitation of 540 nm and an emission of 600 nm. Data is analyzed using Prism software (GraphPad, San Diego, CA) to calculate IC50 values.

Chain of B-Raf (V600E) (SEQ. ID NO: 4) kinase (P15056 416-766 V600E): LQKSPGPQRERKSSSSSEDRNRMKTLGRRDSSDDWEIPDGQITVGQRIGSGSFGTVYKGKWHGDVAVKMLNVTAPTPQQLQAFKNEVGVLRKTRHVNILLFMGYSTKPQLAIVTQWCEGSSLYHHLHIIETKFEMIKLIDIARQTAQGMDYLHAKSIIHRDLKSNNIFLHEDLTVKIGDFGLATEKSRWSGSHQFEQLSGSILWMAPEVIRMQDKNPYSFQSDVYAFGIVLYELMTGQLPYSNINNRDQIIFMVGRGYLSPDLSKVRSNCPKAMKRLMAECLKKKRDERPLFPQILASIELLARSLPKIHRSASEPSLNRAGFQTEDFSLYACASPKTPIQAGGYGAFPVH

Row | SMILES | IC50 [1] [nM] | IC50 [2] [nM] | IC50 [4] [nM] | IC50 [3] [nM]
1 | CNC(=O)c1cc(-c2cncc(-c3cc(NC(=O)c4ccnc(C(C)(F)F)c4)ccc3C)c2)ncn1 [Example 439] | ≤ 100 | 1000 to 10000 | 100 to 500 | 100 to 500
2 | CNC(=O)c1cc(-c2cncc(-c3cc(NC(=O)c4ccnc(C(C)(F)F)c4)ccc3C)c2)ccn1 [Example 440] | ≤ 100 | 1000 to 10000 | 100 to 500 | ≤ 100
3 | CNC(=O)c1cc(-c2cc(-c3cc(NC(=O)c4ccnc(C(C)(F)F)c4)ccc3C)ccn2)ccn1 [Example 441] | ≤ 100 | 500 to 1000 | ≤ 100 | ≤ 100
4 | CNC(=O)c1cc(-c2cncc(-c3cc(NC(=O)c4ccnc(C(C)(C)C#N)c4)ccc3C)c2)ccn1 [Example 442] | ≤ 100 | 1000 to 10000 | ≤ 100 | ≤ 100
5 | CNC(=O)c1cc(-c2cc(-c3cc(NC(=O)c4ccnc(C(C)C)c4)ccc3C)ccn2)ccn1 [Example 443] | ≤ 100 | 500 to 1000 | 100 to 500 | ≤ 100
6 | CNC(=O)c1cc(-c2cc(-c3cc(NC(=O)c4ccnc(C(C)(C)F)c4)cnc3C)ccn2)ccn1 [Example 444] | ≤ 100 | 1000 to 10000 | 100 to 500 | 100 to 500
7 | CNC(=O)c1cc(-c2cncc(-c3cc(NC(=O)c4ccnc(C(C)C)c4)ccc3C)c2)ccn1 [Example 445] | ≤ 100 | 500 to 1000 | 100 to 500 | ≤ 100
8 | CNC(=O)c1cc(-c2cncc(-c3cc(NC(=O)c4ccnc(C(C)C)c4)ccc3C)c2)ncn1 [Example 446] | ≤ 100 | 1000 to 10000 | 100 to 500 | ≤ 100
9 | Cc1ccc(NC(=O)c2ccnc(C(C)(C)F)c2)cc1-c1ccnc(-c2ccnc(C#N)c2)c1 [Example 447] | 100 to 500 | 1000 to 10000 | 1000 to 10000 | 500 to 1000
10 | Cc1ccc(NC(=O)c2ccnc(C(C)(C)F)c2)cc1-c1ccnc(-c2ccnc(C(=O)NCCO)c2)c1 [Example 448] | ≤ 100 | 1000 to 10000 | 100 to 500 | ≤ 100
11 | CNC(=O)c1cc(-c2cc(-c3cc(NC(=O)c4ccnc(C(C)(C)F)c4)ccc3C)cc(OCCO)n2)ccn1 [Example 449] | ≤ 100 | 1000 to 10000 | ≤ 100 | ≤ 100
12 | Cc1ccc(NC(=O)c2ccnc(C(C)(C)F)c2)cc1-c1ccnc(-c2ccnc(C(=O)NC3CN(C)C3)c2)c1 [Example 450] | ≤ 100 | 1000 to 10000 | 100 to 500 | 100 to 500
13 | Cc1ccc(NC(=O)c2ccnc(C(C)(C)F)c2)cc1-c1ccnc(-c2ccnc(C(=O)NCC#N)c2)c1 [Example 451] | ≤ 100 | 1000 to 10000 | ≤ 100 | ≤ 100

Further lines, with some results ahead:

Row | IC50 [1] [nM] | IC50 [2] [nM] | IC50 [4] [nM] | SMILES | IC50 [3] [nM]
14 | ≤ 100 | 1000 to 10000 | 100 to 500 | CNC(=N)c1cc(-c2cc(-c3cc(NC(=O)c4ccnc(C(C)(C)F)c4)ccc3C)ccn2)ccn1 [Example 452] | 100 to 500
15 | ≤ 100 | 1000 to 10000 | 100 to 500 | Cc1ccc(NC(=O)c2ccnc(C(C)(C)F)c2)cc1-c1ccnc(-c2ccnc(C(=O)NCCN(C)C)c2)c1 [Example 453] | 100 to 500
16 | ≤ 100 | 500 to 1000 | ≤ 100 | Cc1ncc(NC(=O)c2ccnc(C(C)(C)F)c2)cc1-c1ccnc(-c2ccnc(NC(=O)C3CC3)c2)c1 [Example 454] | ≤ 100
17 | ≤ 100 | 100 to 500 | ≤ 100 | Cc1ccc(NC(=O)c2ccnc(C(C)(C)F)c2)cc1-c1ccnc(-c2ccnc(NC(=O)C3CC3)c2)c1 [Example 455] | ≤ 100
18 | ≤ 100 | 100 to 500 | ≤ 100 | Cc1ccc(NC(=O)c2ccnc(C(C)(C)C#N)c2)cc1-c1ccnc(-c2ccnc(NC(=O)C3CC3)c2)c1 [Example 456] | ≤ 100
19 | ≤ 100 | 100 to 500 | ≤ 100 | Cc1ccc(NC(=O)c2ccnc(C3(C#N)CC3)c2)cc1-c1ccnc(-c2ccnc(NC(=O)C3CC3)c2)c1 [Example 457] | ≤ 100
20 | ≤ 100 | 100 to 500 | 100 to 500 | Cc1ccc(NC(=O)c2ccnc(C3CC3)c2)cc1-c1ccnc(-c2ccnc(NC(=O)C3CC3)c2)c1 [Example 458] | ≤ 100
21 | ≤ 100 | 100 to 500 | ≤ 100 | Cc1ccc(NC(=O)c2ccnc(C(C)(F)F)c2)cc1-c1ccnc(-c2ccnc(NC(=O)C3CC3)c2)c1 [Example 459] | ≤ 100
22 | ≤ 100 | 500 to 1000 | 100 to 500 | CNC(=O)c1cc(-c2cc(-c3cc(NC(=O)c4ccnc(C5CC5)c4)ccc3C)ccn2)ccn1 [Example 460] | ≤ 100
23 | ≤ 100 | 100 to 500 | ≤ 100 | Cc1ncc(NC(=O)c2ccnc(C3(C#N)CC3)c2)cc1-c1ccnc(-c2ccnc(NC(=O)C3CC3)c2)c1 [Example 461] | ≤ 100
24 | 100 to 500 | 1000 to 10000 | 1000 to 10000 | CNC(=O)c1cc(-c2cc(-c3cc(NC(=O)c4ccnc(C5CC5)c4)cnc3C)ccn2)ccn1 [Example 462] | 500 to 1000
25 | ≤ 100 | 1000 to 10000 | 500 to 1000 | CNC(=O)c1cc(-c2cc(-c3cc(NC(=O)c4ccnc(C(C)(F)F)c4)cnc3C)ccn2)ccn1 [Example 463] | 100 to 500
26 | ≤ 100 | 100 to 500 | 100 to 500 | CNC(=O)c1cc(-c2cc(-c3cc(NC(=O)c4ccnc(C5(C#N)CC5)c4)cnc3C)ccn2)ccn1 [Example 464] | 100 to 500
27 | ≤ 100 | 1000 to 10000 | 500 to 1000 | CNC(=O)c1cc(-c2cc(-c3cc(NC(=O)c4ccnc(C(C)C)c4)cnc3C)ccn2)ccn1 [Example 465] | 100 to 500
